Laboratory results from patent publication US10927106B2, “Benzothiazole derivatives as DYRK1 inhibitors” (PHARMASUM THERAPEUTICS AS, priority 2017, dated 2021).

How the values were obtained:
Test in all cases: Kinase profiling, 33P ATP filter binding assay
Assay type in all cases: biochemical
Conditions in all cases: 1 micromolar inhibitor concentration, read-out: percentage inhibition
JNK2 = JNK2 (Homo sapiens (Human), UniProt P45984)
Aurora B = Aurora B (Homo sapiens (Human), UniProt Q96GD4)
RSK2 = RSK2 (Homo sapiens (Human), UniProt P51812)
EPH-A2 = EPH-A2 (Homo sapiens (Human), UniProt P29317)
PIM1 = PIM1 (Homo sapiens (Human), UniProt P11309)
ABL = ABL (Homo sapiens (Human), UniProt P00519)
ASK1 = ASK1 (Homo sapiens (Human), UniProt Q99683)
MELK = MELK (Homo sapiens (Human), UniProt Q14680)
RIPK2 = RIPK2 (Homo sapiens (Human), UniProt O43353)
MARK2 = MARK2 (Homo sapiens (Human), UniProt Q7KZI7)
TTBK2 = TTBK2 (Homo sapiens (Human), UniProt Q6IQ55)
EPH-B2 = EPH-B2 (Homo sapiens (Human), UniProt P29323)
TAO1 = TAO1 (Homo sapiens (Human), UniProt Q7L7X3)
VEG-FR = VEG-FR (Homo sapiens (Human), UniProt P17948)
CAMKKb = CAMKKb (Homo sapiens (Human), UniProt Q96RR4)
PKBb = PKBb (Homo sapiens (Human), UniProt P31751)
MLK1 = MLK1 (Homo sapiens (Human), UniProt P80192)
PRAK = PRAK (Homo sapiens (Human), UniProt Q8IW41)
MAPKAP-K2 = MAPKAP-K2 (Homo sapiens (Human), UniProt P49137)
PKCz = PKCz (Homo sapiens (Human), UniProt Q05513)
CK1y2 = CK1y2 (Homo sapiens (Human), UniProt P78368)
p38a MAPK = p38a MAPK (Homo sapiens (Human), UniProt Q16539)
IRR = IRR (Homo sapiens (Human), UniProt P14616)
SGK1 = SGK1 (Homo sapiens (Human), UniProt O00141)
PDGFRA = PDGFRA (Homo sapiens (Human), UniProt P16234)
MST3 = MST3 (Homo sapiens (Human), UniProt Q9Y6E0)
MPSK1 = MPSK1 (Homo sapiens (Human), UniProt O75716)
Src = Src (Homo sapiens (Human), UniProt P12931)
PRK2 = PRK2 (Homo sapiens (Human), UniProt Q16513)
CDK9-Cyclin T1 = CDK9-Cyclin T1 (Homo sapiens (Human), UniProt P50750)
IKKe = IKKe (Homo sapiens (Human), UniProt Q14164)
PKA = PKA (Homo sapiens (Human), UniProt P17612)
HIPK3 = HIPK3 (Homo sapiens (Human), UniProt Q9H422)
p38d MAPK = p38d MAPK (Homo sapiens (Human), UniProt O15264)
IKKb = IKKb (Homo sapiens (Human), UniProt O14920)
NUAK1 = NUAK1 (Homo sapiens (Human), UniProt O60285)
CDK2-Cyclin A = CDK2-Cyclin A (Homo sapiens (Human), UniProt P24941)
SIK3 = SIK3 (Homo sapiens (Human), UniProt Q9Y2K2)
ERK2 = ERK2 (Homo sapiens (Human), UniProt P28482)
MKK6 = MKK6 (Homo sapiens (Human), UniProt P52564)
SmMLCK = SmMLCK (Homo sapiens (Human), UniProt Q15746)
Protocol: The determination of protein kinase inhibition was performed at the International Centre for Kinase Profiling at the University of Dundee, UK. […] The ATP concentrations were at or below the calculated Km for ATP for each particular kinase.

Sequence of EPH-A2 (P29317 24-976, species assumed): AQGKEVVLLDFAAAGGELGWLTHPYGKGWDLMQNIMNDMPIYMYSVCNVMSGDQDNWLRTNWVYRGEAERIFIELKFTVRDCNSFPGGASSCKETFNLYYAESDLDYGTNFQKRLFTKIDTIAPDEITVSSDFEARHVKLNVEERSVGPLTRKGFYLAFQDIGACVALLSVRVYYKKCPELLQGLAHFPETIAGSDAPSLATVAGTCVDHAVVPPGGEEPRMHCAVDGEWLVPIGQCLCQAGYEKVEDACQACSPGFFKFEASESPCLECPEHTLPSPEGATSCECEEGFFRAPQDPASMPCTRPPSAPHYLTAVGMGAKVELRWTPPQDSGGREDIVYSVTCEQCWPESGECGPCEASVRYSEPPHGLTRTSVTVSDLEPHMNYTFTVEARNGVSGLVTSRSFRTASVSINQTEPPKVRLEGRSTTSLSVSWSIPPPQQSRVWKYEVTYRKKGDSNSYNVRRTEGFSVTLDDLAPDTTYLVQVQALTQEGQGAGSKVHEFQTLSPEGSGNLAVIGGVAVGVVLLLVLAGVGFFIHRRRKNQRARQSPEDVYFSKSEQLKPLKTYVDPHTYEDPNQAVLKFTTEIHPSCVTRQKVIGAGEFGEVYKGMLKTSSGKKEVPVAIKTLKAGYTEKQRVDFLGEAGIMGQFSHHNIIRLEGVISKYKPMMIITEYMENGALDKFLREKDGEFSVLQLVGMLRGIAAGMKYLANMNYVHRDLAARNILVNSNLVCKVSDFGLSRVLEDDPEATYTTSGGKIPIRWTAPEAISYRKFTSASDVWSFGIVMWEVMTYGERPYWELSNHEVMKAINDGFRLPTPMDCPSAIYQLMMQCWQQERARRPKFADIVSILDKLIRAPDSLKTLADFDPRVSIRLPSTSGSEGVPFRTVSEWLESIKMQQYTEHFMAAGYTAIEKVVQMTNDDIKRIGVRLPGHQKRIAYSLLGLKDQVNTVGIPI
Sequence of MARK2 (Q7KZI7 whole entry, species assumed): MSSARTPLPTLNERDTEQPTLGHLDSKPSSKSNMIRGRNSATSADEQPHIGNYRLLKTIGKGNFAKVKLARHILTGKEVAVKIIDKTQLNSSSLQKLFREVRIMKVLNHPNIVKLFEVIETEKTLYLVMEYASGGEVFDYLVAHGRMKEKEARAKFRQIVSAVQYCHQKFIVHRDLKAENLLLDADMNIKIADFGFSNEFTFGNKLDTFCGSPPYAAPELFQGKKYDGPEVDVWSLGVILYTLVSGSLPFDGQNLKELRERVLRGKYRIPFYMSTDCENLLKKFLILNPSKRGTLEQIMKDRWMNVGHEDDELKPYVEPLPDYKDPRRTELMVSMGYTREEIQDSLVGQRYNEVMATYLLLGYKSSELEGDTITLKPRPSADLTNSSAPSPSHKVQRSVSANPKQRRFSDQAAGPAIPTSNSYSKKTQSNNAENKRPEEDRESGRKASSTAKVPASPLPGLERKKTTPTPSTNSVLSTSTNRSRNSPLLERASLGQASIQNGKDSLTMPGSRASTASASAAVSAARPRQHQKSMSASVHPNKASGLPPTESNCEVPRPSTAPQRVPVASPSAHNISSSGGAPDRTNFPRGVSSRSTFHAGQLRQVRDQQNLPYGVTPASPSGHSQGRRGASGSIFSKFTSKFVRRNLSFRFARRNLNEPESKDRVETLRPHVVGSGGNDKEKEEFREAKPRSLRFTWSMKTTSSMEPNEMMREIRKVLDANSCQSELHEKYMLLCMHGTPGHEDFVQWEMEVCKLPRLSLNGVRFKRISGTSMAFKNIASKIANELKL
Sequence of MST3 (Q9Y6E0 whole entry, species assumed): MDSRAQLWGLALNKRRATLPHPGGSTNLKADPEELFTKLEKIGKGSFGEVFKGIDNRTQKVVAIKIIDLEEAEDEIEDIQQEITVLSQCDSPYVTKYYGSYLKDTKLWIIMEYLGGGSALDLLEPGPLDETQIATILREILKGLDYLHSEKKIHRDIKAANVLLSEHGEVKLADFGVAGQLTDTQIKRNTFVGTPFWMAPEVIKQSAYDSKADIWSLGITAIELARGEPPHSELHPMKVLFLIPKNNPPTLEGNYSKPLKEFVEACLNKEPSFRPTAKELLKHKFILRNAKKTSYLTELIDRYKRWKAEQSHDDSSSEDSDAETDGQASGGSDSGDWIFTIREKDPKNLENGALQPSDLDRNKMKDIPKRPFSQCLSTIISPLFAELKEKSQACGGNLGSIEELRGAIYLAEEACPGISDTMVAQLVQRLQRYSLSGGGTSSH
Sequence of NUAK1 (O60285 whole entry, species assumed): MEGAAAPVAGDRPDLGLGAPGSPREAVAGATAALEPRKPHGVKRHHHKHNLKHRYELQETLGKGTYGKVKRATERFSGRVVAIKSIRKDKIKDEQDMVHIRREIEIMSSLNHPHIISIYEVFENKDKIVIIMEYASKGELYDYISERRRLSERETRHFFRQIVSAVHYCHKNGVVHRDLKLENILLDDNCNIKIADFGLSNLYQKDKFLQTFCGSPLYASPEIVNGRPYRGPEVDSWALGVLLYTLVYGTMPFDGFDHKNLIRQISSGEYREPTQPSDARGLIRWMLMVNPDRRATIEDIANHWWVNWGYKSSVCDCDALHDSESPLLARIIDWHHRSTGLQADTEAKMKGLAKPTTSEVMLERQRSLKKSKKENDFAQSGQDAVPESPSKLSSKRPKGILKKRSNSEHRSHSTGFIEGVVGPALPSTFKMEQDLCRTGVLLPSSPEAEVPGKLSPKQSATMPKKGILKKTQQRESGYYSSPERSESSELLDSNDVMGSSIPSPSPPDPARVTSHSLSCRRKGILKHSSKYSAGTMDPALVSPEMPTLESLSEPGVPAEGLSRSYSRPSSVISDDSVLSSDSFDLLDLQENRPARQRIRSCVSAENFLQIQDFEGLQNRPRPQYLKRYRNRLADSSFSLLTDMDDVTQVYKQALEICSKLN
Sequence of CDK9-Cyclin T1 (P50750 whole entry): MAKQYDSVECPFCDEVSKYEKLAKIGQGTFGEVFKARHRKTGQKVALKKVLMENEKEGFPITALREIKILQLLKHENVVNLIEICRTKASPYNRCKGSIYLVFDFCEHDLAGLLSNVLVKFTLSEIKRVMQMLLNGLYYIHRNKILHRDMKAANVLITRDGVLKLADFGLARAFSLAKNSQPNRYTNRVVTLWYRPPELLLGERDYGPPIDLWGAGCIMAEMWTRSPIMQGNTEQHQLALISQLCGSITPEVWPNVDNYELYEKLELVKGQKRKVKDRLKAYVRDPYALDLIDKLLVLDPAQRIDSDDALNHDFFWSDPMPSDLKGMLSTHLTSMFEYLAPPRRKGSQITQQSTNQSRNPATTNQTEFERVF
Sequence of CDK9-Cyclin T1 (O60563 whole entry partner): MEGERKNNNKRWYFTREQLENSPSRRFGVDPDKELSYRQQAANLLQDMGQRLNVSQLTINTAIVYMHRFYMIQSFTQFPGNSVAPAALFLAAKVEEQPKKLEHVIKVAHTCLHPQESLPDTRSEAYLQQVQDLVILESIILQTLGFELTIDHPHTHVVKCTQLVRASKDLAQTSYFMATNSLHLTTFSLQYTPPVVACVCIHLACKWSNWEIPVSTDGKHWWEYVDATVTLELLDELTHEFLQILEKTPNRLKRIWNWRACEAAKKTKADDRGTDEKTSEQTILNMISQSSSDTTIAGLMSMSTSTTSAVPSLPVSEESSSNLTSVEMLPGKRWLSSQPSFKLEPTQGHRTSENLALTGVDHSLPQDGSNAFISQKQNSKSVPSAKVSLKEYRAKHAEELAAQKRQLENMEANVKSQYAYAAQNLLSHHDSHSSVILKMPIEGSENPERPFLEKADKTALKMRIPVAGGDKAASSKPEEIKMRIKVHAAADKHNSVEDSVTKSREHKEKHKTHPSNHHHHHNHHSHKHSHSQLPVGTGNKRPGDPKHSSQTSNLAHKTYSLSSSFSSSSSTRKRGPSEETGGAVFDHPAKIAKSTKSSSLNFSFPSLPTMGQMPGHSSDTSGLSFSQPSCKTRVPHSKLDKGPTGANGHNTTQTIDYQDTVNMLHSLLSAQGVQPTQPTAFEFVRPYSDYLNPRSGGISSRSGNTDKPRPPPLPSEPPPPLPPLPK
Sequence of Aurora B (Q96GD4 whole entry): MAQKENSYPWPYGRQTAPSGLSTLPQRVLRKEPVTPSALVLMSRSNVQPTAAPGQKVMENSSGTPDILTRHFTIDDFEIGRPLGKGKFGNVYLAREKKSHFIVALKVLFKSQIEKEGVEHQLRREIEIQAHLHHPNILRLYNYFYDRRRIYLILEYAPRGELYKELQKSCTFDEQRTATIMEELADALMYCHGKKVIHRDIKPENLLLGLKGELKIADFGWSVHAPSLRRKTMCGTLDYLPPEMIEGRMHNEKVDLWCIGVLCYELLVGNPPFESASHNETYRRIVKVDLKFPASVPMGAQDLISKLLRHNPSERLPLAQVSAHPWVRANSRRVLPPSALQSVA
Sequence of PKCz (Q05513 whole entry): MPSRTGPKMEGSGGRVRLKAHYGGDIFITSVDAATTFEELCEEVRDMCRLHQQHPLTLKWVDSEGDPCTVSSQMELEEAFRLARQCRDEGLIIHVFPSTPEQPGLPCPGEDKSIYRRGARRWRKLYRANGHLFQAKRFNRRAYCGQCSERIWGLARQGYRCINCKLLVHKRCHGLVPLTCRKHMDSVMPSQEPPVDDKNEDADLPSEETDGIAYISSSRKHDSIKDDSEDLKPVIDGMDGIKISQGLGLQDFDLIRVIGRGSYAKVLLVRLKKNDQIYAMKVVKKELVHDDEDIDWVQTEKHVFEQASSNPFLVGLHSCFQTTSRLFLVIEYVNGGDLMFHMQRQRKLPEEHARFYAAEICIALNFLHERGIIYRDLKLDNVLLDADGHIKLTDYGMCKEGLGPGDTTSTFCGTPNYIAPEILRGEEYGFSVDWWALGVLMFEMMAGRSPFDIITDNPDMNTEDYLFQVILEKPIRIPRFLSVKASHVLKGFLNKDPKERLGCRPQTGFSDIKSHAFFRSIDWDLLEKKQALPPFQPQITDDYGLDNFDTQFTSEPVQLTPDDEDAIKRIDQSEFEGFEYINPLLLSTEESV

For COc1ccc2sc(-c3cncc(NC(C)=O)c3)nc2c1 [4-93, N-(5-(5-Methoxybenzo[d]thiazol-2-yl)pyridin-3-yl)acetamide], which inhibition at 1 µM (JNK2) is on record?
The inhibition at 1 µM was 0%.

What about the inhibition at 1 µM (Aurora B) of the same compound?
The inhibition at 1 µM was 0%.

What about the inhibition at 1 µM (RSK2) of the same compound?
The inhibition at 1 µM was 0%.

And the inhibition at 1 µM (EPH-A2)?
The inhibition at 1 µM was 0%.

What about the inhibition at 1 µM (PIM1) of the same compound?
Its inhibition at 1 µM is 2%.

What about the inhibition at 1 µM (ABL) of the same compound?
The inhibition at 1 µM was 3%.

And the inhibition at 1 µM (ASK1)?
Its inhibition at 1 µM is 0%.

And the inhibition at 1 µM (MELK)?
Its inhibition at 1 µM is 1%.

What about the inhibition at 1 µM (RIPK2) of the same compound?
Its inhibition at 1 µM is 0%.

What about the inhibition at 1 µM (MARK2) of the same compound?
Its inhibition at 1 µM is 0%.

What about the inhibition at 1 µM (TTBK2) of the same compound?
Its inhibition at 1 µM is 0%.

And the inhibition at 1 µM (EPH-B2)?
The inhibition at 1 µM was 0%.

And the inhibition at 1 µM (TAO1)?
The inhibition at 1 µM was 0%.

And the inhibition at 1 µM (VEG-FR)?
The inhibition at 1 µM was 0%.

What about the inhibition at 1 µM (CAMKKb) of the same compound?
Its inhibition at 1 µM is 0%.

And the inhibition at 1 µM (PKBb)?
Its inhibition at 1 µM is 0%.

And the inhibition at 1 µM (MLK1)?
Its inhibition at 1 µM is 0%.

What about the inhibition at 1 µM (PRAK) of the same compound?
The inhibition at 1 µM was 0%.

And the inhibition at 1 µM (MAPKAP-K2)?
The inhibition at 1 µM was 0%.

What about the inhibition at 1 µM (PKCz) of the same compound?
Its inhibition at 1 µM is 0%.

What about the inhibition at 1 µM (CK1y2) of the same compound?
The inhibition at 1 µM was 0%.

What about the inhibition at 1 µM (p38a MAPK) of the same compound?
Its inhibition at 1 µM is 0%.

And the inhibition at 1 µM (IRR)?
Its inhibition at 1 µM is 0%.

What about the inhibition at 1 µM (SGK1) of the same compound?
The inhibition at 1 µM was 0%.

What about the inhibition at 1 µM (PDGFRA) of the same compound?
Its inhibition at 1 µM is 0%.

What about the inhibition at 1 µM (MST3) of the same compound?
Its inhibition at 1 µM is 0%.

And the inhibition at 1 µM (MPSK1)?
The inhibition at 1 µM was 0%.

What about the inhibition at 1 µM (Src) of the same compound?
The inhibition at 1 µM was 0%.

And the inhibition at 1 µM (PRK2)?
Its inhibition at 1 µM is 0%.

What about the inhibition at 1 µM (CDK9-Cyclin T1) of the same compound?
Its inhibition at 1 µM is 0%.

And the inhibition at 1 µM (IKKe)?
Its inhibition at 1 µM is 0%.

And the inhibition at 1 µM (PKA)?
The inhibition at 1 µM was 12%.

And the inhibition at 1 µM (HIPK3)?
Its inhibition at 1 µM is 0%.

What about the inhibition at 1 µM (p38d MAPK) of the same compound?
The inhibition at 1 µM was 0%.

And the inhibition at 1 µM (IKKb)?
The inhibition at 1 µM was 0%.

And the inhibition at 1 µM (NUAK1)?
Its inhibition at 1 µM is 0%.

And the inhibition at 1 µM (CDK2-Cyclin A)?
The inhibition at 1 µM was 0%.

And the inhibition at 1 µM (SIK3)?
Its inhibition at 1 µM is 0%.

And the inhibition at 1 µM (ERK2)?
Its inhibition at 1 µM is 0%.

And the inhibition at 1 µM (MKK6)?
The inhibition at 1 µM was 0%.

And the inhibition at 1 µM (SmMLCK)?
The inhibition at 1 µM was 0%.

Which results are given for CS(=O)(=O)Nc1cncc(-c2nc3cc(O)ccc3s2)c1 [4-99, N-(5-(5-Hydroxybenzo[d]thiazol-2-yl)pyridin-3-yl)methanesulfonamide]?
inhibition at 1 µM (JNK2): 0%; inhibition at 1 µM (Aurora B): 0%; inhibition at 1 µM (RSK2): 0%; inhibition at 1 µM (EPH-A2): 0%; inhibition at 1 µM (PIM1): 0%; inhibition at 1 µM (ABL): 0%; inhibition at 1 µM (ASK1): 0%; inhibition at 1 µM (MELK): 0%; inhibition at 1 µM (RIPK2): 24%; inhibition at 1 µM (MARK2): 0%; inhibition at 1 µM (TTBK2): 0%; inhibition at 1 µM (EPH-B2): 0%; inhibition at 1 µM (TAO1): 0%; inhibition at 1 µM (VEG-FR): 0%; inhibition at 1 µM (CAMKKb): 0%; inhibition at 1 µM (PKBb): 0%; inhibition at 1 µM (MLK1): 0%; inhibition at 1 µM (PRAK): 0%; inhibition at 1 µM (MAPKAP-K2): 0%; inhibition at 1 µM (PKCz): 0%; inhibition at 1 µM (CK1y2): 0%; inhibition at 1 µM (p38a MAPK): 0%; inhibition at 1 µM (IRR): 0%; inhibition at 1 µM (SGK1): 7%; inhibition at 1 µM (PDGFRA): 0%; inhibition at 1 µM (MST3): 0%; inhibition at 1 µM (MPSK1): 11%; inhibition at 1 µM (Src): 0%; inhibition at 1 µM (PRK2): 0%; inhibition at 1 µM (CDK9-Cyclin T1): 0%; inhibition at 1 µM (IKKe): 0%; inhibition at 1 µM (PKA): 3%; inhibition at 1 µM (HIPK3): 0%; inhibition at 1 µM (p38d MAPK): 0%; inhibition at 1 µM (IKKb): 0%; inhibition at 1 µM (NUAK1): 0%; inhibition at 1 µM (CDK2-Cyclin A): 6%; inhibition at 1 µM (SIK3): 0%; inhibition at 1 µM (ERK2): 0%; inhibition at 1 µM (MKK6): 0%; inhibition at 1 µM (SmMLCK): 0%
